Source: ChEMBL document CHEMBL1201862, “PubChem BioAssay data set” (2004)
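Grown in 96-well plates, cells were treated for 48 hours with each compound at five concentrations. Insufficient inhibition: endpoint recorded as highest concentration tested. At the GI50, growth is halved.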 Activity calls are given as the source filed them. Cut-off read from the data, not from the text of the source: active = GI50 up to about 1.1 µM and inactive = higher.

Key:
Assay in all cases: inhibition of tumour cell growth, NCI panel, 48 h
[1] = system: CCRF-CEM
[2] = system: 786-0
[3] = system: HL-60
[4] = system: A498
[5] = system: ACHN
[6] = system: DMS-114
[7] = system: SK-MEL-28
[8] = system: UO-31
[9] = system: SK-OV-3
[10] = system: RXF 393
[11] = system: MOLT-4
[12] = system: EKVX
[13] = system: HCT-15
[14] = system: HCT-116
[15] = system: DMS-273
[16] = system: RPMI-8226
[17] = system: NCI-H226
[18] = system: UACC-62
[19] = system: TK-10
[20] = system: M14
[21] = system: HOP-62
[22] = system: OVCAR-8
[23] = system: M19-MEL
[24] = system: UACC-257
[25] = system: OVCAR-4
[26] = system: KM12
[27] = system: NCI-H23
[28] = system: SF-539
[29] = system: Malme-3M
[30] = system: SNB-78
[31] = system: OVCAR-3
[32] = system: SNB-75
[33] = system: K562
[34] = system: NCI-H460
[35] = system: OVCAR-5
[36] = system: XF498
[37] = system: U-251
[38] = system: LXFL 529
[39] = system: IGROV-1
[40] = system: HCC 2998
[41] = system: SW-620
[42] = system: RXF 631
[43] = system: KM-20L2
[44] = system: HT-29
[45] = system: SK-MEL-5
[46] = system: A549
[47] = system: SK-MEL-2
[48] = system: SF-295
[49] = system: DLD-1
[50] = system: CAKI-1
[51] = system: SN12C
[52] = system: SNB-19
[53] = system: SF-268
[54] = system: LOX IMVI
[55] = system: SR
[56] = system: NCI-H522
[57] = system: COLO 205
[58] = system: HOP-92
[59] = system: HOP-18

Measured: GI50

Cc1ccc(S(=O)(=O)c2ccccc2[N+](=O)[O-])cc1
inactive: [1] > 100 µM | [2] > 100 µM | [3] 37.5 µM | [4] > 100 µM | [5] > 100 µM | [6] 44.6 µM | [7] > 100 µM | [8] 81.8 µM | [9] > 100 µM | [10] 37.3 µM | [11] 66.7 µM | [12] > 100 µM | [14] 66.8 µM | [15] > 100 µM | [16] 80.7 µM | [17] > 100 µM | [18] 37.4 µM | [19] > 100 µM | [20] > 100 µM | [21] 92.3 µM | [22] > 100 µM | [23] > 100 µM | [24] 72.6 µM | [25] 86.9 µM | [26] > 100 µM | [27] 55.2 µM | [28] > 100 µM | [29] 85.1 µM | [30] > 100 µM | [31] > 100 µM | [32] > 100 µM | [33] 73.3 µM | [34] > 100 µM | [35] > 100 µM | [36] > 100 µM | [37] > 100 µM | [38] > 100 µM | [39] > 100 µM | [40] > 100 µM | [41] > 100 µM | [42] 49.1 µM | [43] > 100 µM | [44] > 100 µM | [45] 52.1 µM | [46] > 100 µM | [47] > 100 µM | [48] > 100 µM | [49] > 100 µM | [50] 67.5 µM
> 100 µM: [13]

Nc1ccc(C(=O)/C=C/c2ccccc2O)cc1
> 100 µM: [13]
inactive: [51] > 100 µM | [1] > 100 µM | [2] > 100 µM | [3] > 100 µM | [4] > 100 µM | [5] > 100 µM | [7] > 100 µM | [8] > 100 µM | [9] > 100 µM | [52] > 100 µM | [10] > 100 µM | [11] > 100 µM | [12] > 100 µM | [14] > 100 µM | [15] > 10 µM | [17] > 100 µM | [18] > 100 µM | [53] > 100 µM | [54] > 100 µM | [19] > 100 µM | [20] > 100 µM | [21] > 100 µM | [22] > 100 µM | [23] > 100 µM | [24] > 100 µM | [25] > 100 µM | [26] > 100 µM | [27] > 100 µM | [28] > 100 µM | [29] > 100 µM | [30] > 100 µM | [55] > 100 µM | [31] > 100 µM | [32] > 100 µM | [33] > 100 µM | [34] > 100 µM | [35] > 100 µM | [36] > 100 µM | [37] > 100 µM | [38] > 100 µM | [39] > 100 µM | [40] > 100 µM | [41] > 100 µM | [42] > 100 µM | [43] > 100 µM | [44] > 100 µM | [45] > 100 µM | [56] > 100 µM | [57] > 100 µM | [46] > 100 µM | [47] > 100 µM | [48] > 100 µM | [49] > 100 µM | [50] > 100 µM

Cc1[nH]c(=O)nc(N(CCO)/N=C/c2ccccc2Cl)c1C(=O)Nc1cc(Cl)cc(Cl)c1
> 100 µM: [13]
inactive: [51] 43.7 µM | [1] 64.1 µM | [2] 20.1 µM | [3] > 100 µM | [4] 24.6 µM | [5] 29.2 µM | [6] 41.2 µM | [7] 36.1 µM | [8] 43.4 µM | [9] 20.4 µM | [11] 77.3 µM | [14] 23 µM | [15] 43.8 µM | [16] 40.2 µM | [17] 23.1 µM | [18] > 100 µM | [53] 31.8 µM | [20] 67.3 µM | [21] 26.5 µM | [23] > 100 µM | [25] 31.6 µM | [27] 34.9 µM | [28] 24.5 µM | [29] > 10 µM | [55] 46.1 µM | [32] 17.7 µM | [58] 23.9 µM | [33] 37.3 µM | [34] 27.9 µM | [36] > 100 µM | [38] 35.2 µM | [39] > 100 µM | [40] 86.5 µM | [42] 29.2 µM | [56] 23.1 µM | [57] > 100 µM | [47] 48.9 µM | [49] 53.1 µM | [50] 45.4 µM

CN[C@@H](C)[C@@H](N)c1ccccc1
> 100 µM: [13]
inactive: [51] > 100 µM | [1] > 100 µM | [2] > 100 µM | [4] > 100 µM | [5] > 100 µM | [7] > 100 µM | [8] > 100 µM | [9] > 100 µM | [52] > 100 µM | [10] > 100 µM | [11] > 100 µM | [12] > 100 µM | [14] > 100 µM | [15] > 100 µM | [16] > 100 µM | [17] > 100 µM | [18] > 100 µM | [54] > 100 µM | [19] > 100 µM | [20] > 100 µM | [22] > 100 µM | [24] > 100 µM | [27] > 100 µM | [28] > 100 µM | [29] > 100 µM | [30] > 100 µM | [31] > 100 µM | [32] 62.8 µM | [58] > 100 µM | [33] > 100 µM | [34] > 100 µM | [59] > 100 µM | [37] > 100 µM | [38] > 100 µM | [39] > 100 µM | [40] > 100 µM | [41] > 100 µM | [42] > 100 µM | [44] > 100 µM | [45] > 100 µM | [56] > 100 µM | [57] > 100 µM | [46] > 100 µM | [48] > 100 µM | [49] > 100 µM | [50] > 100 µM

Cc1cc2c(c(C(=O)O)c1C)-c1cccc(F)c1C2=O
inactive: [51] > 100 µM | [1] > 100 µM | [2] > 100 µM | [5] > 100 µM | [6] > 100 µM | [7] > 100 µM | [8] 27 µM | [9] > 100 µM | [52] 67.8 µM | [10] 66.7 µM | [11] > 100 µM | [12] > 100 µM | [15] > 100 µM | [16] > 100 µM | [17] 55.1 µM | [18] > 100 µM | [53] > 100 µM | [54] > 100 µM | [19] > 100 µM | [20] > 100 µM | [21] > 100 µM | [22] > 100 µM | [23] > 100 µM | [24] > 100 µM | [25] > 100 µM | [26] > 100 µM | [27] > 100 µM | [29] > 100 µM | [30] > 100 µM | [31] > 100 µM | [32] > 100 µM | [33] > 100 µM | [34] > 100 µM | [35] > 100 µM | [36] > 100 µM | [37] > 100 µM | [38] > 100 µM | [39] > 100 µM | [40] > 100 µM | [41] > 100 µM | [42] > 100 µM | [43] > 100 µM | [44] > 100 µM | [45] > 100 µM | [56] > 100 µM | [57] > 100 µM | [46] > 100 µM | [47] > 100 µM | [48] > 100 µM | [49] > 100 µM | [50] > 100 µM
> 100 µM: [13]
